Test results reported in patent publication US9321782B2, “Process for preparation of novel 42-O-(heteroalkoxyalkyl) rapamicin compounds with anti-proliferative properties” (MERIL LIFE SCIENCES PVT. LTD., priority 2010, dated 2016).
Where “and” joins values, the source holds several entries; their conditions need not be identical. Equal values may be shown once.

Legend:
[1] = tested on: L-929 (ATCC cell lines CCL-1, NCTC clone 929) Mus musculus mouse fibroblast cells; test: In-vitro cytotoxicity test by extraction method; type: cell-based; details: extract in contact with L-929 cells for 48 hours
Protocol: In-vitro assessment was done to check the cytotoxic or necrotic potential of the 42-O-(tetrahydrofuran-3-yl) rapamycin and 42-O-(oxetan-3-yl) rapamycin compounds by extraction method. In this study extracts of test substance were kept in contact with a multiple culture of L-929 (ATCC cell lines CCL-1, NCTC clone 929) Mus musculus mouse fibroblast cells for 48 hours. The cells were examined microscopically to assess the changes for its general morphology, vacuolization, detachment, cell lysis and membrane integrity.

[2] = Stability analysis (HPLC purity on storage) without BHT at various temperatures; type: physicochemical; details: for Purity (%): without BHT
Protocol: (§1) To check the purity of the 42-O-(heteroalkoxyalkyl) rapamycin compounds the following condition was followed by using High Performance Liquid Chromatography, Phenomenex Synergi Hydro-RP 80a (250×4.6 ) mm, 4 micron column. The mobile phase was 65:15:20 methanol:acetonitile:water mixture. The detector was set at 276 nm and the flow rate was adjusted to 1.5 mL/min. Column temperature was 40° C. 2.0 μg of 42-O-(heteroalkoxyalkyl) rapamycin compounds was injected onto the column in a volume of 5.0 μL methanol with run time of 50 min.
The purity loss was higher at increased temperature, but there was no apparent change in the impurity profile. Table 2A presents the purity of various 42-O-(heteroalkoxyalkyl) rapamycin compounds at different time intervals and temperature conditions.

[3] = tested on: rabbit illiac artery smooth muscle cell cultures (RbIASMCs); test: In-vitro anti-proliferative potency, BrdU assay, rabbit smooth muscle cells; type: cell-based; details: BrdU incorporation, over 5 orders of magnitude concentration, compared with rapamycin
Text: (§2) In-vitro assessment of relative anti-proliferative effect of novel mTOR inhibitors 42-O-(oxetan-3-yl) rapamycin compound and 42-O-(tetrahydrofuran-3-yl) rapamycin compound with rapamycin was done on human and rabbit smooth muscle cell culture models. In which, human aorta and rabbit illiac artery smooth muscle cell cultures were subjected to increasing doses of 42-O-(oxetan-3-yl) rapamycin compound 42-O-(tetrahydrofuran-3-yl) rapamycin compound and rapamycin over 5 orders of magnitude concentration in the cell culture medium. The ability of the cell culture to reproduce was assessed after drug exposure by addition of a BromodeoxyUridine (BrdU) coloured reagent which causes a colour change in the surviving cells. The extent of colour development was quantified at 450 nm wavelength using a spectrophotometer microplate reader (BMG Labtech, FLUOstar OPTIMA). […] On the contrary, lower OD values reflect less incorporation on BrdU and a shift towards cell inhibition. Growth inhibition was calculated by subtracting positive control OD values, which represent 100% uninhibited growth.

rabbit blood [4] = test: Haemocompatibility test (thrombosis, coagulation, platelet count, leucocyte count); type: cell-based
Protocol: Haemocompatibility test is conducted to evaluate biological safety of the blood contacting 42-O-([…]) rapamycin and 42-O-(oxetan-3-yl) rapamycin compounds for the medical device. The interaction of test substance with rabbit blood was checked for thrombosis, coagulation, platelet count and leucocyte count.

rabbit blood [5] = test: In-vitro haemolysis test; type: cell-based; details: for Haemolytic Index, Mean ± S. D.: mean of three test extracts, rabbit blood, 4 hrs
Protocol: Haemolysis test was conducted on rabbit blood by in-vitro method to check the haemolytic effect of 42-O-(tetrahydrofuran-3-yl) rapamycin (Merilimus-1) compound and 42-O-(oxetan-3-yl) rapamycin (Merilimus-2) compound. In this study the extracts of the test substances in triplicate were kept in contact with rabbit blood and incubated for 4 hrs. The concentration of plasma haemoglobin liberated in supernatant was calculated by comparing with absorbance of the standard solution in a spectrophotometer at 540 nm.

[6] = tested on: human aorta smooth muscle cell cultures (hAoSMCs); test: In-vitro anti-proliferative potency, BrdU assay, human smooth muscle cells; type: cell-based; details: BrdU incorporation, over 5 orders of magnitude concentration, compared with rapamycin
Text: as §2

[7] = Stability analysis (HPLC purity on storage) with various concentrations of BHT at 40° C.; type: physicochemical; details: sealed container
Protocol: as §1
The inventors have also conducted the stability study of various 42-O-(heteroalkoxyalkyl) rapamycin compounds as mentioned above using various BHT concentrations. The study was conducted at 40° C. temperature in sealed container for 8 weeks.
42-O-(heteroalkoxyalkyl) rapamycin compounds obtained as per procedure described in Example 1 are respectively added with anti-oxidant, namely Butylated Hydroxytoluene (or BHT), at a concentration of 0.1%, 0.2%, 0.5%, and 1.0% (w/w) based on 100% (w/w) of 42-O-(heteroalkoxyalkyl) rapamycin compounds in sealed container to study the stability at 40° C. temperature. […] The purity data with the addition of different amounts of anti-oxidant as added to 42-O-(tetrahydrofuran-3-yl) rapamycin compound, 42-O-(oxetan-3-yl) rapamycin compound and 42-O-(tetrahydropyran-3-yl) rapamycin compound checked at different time intervals are summarized in Table 2B as below mentioned.

[8] = test group, individual rabbits No. 1-3

Stability (in words) ([2]; purified compounds without anti-oxidant): more thermally stable | Purity (%) ([2]; 5° C. (sealed), 00 weeks after synthesis): 97.7% | Purity (%) ([2]; 5° C. (sealed), 02 weeks after synthesis): 96.5% | Purity (%) ([2]; 5° C. (sealed), 04 weeks after synthesis): 95.6% | Purity (%) ([2]; 5° C. (sealed), 08 weeks after synthesis): 94.8% | Purity (%) ([2]; 5° C. (sealed), 12 weeks after synthesis): 94.2% | Purity (%) ([2]; 25° C. (sealed), 00 weeks after synthesis): 97.6% | Purity (%) ([2]; 25° C. (sealed), 02 weeks after synthesis): 96.2% | Purity (%) ([2]; 25° C. (sealed), 04 weeks after synthesis): 95.1% | Purity (%) ([2]; 25° C. (sealed), 08 weeks after synthesis): 94.5% | Purity (%) ([2]; 25° C. (sealed), 12 weeks after synthesis): 93.9% | Purity (%) ([2]; 25° C. (unsealed), 00 weeks after synthesis): 97.3% | Purity (%) ([2]; 25° C. (unsealed), 02 weeks after synthesis): 95.9% | Purity (%) ([2]; 25° C. (unsealed), 04 weeks after synthesis): 94.8% | Purity (%) ([2]; 25° C. (unsealed), 08 weeks after synthesis): 94.0% | Purity (%) ([2]; 25° C. (unsealed), 12 weeks after synthesis): 93.6% | Purity (%) ([2]; 40° C. (sealed), 00 weeks after synthesis): 97.3% | Purity (%) ([2]; 40° C. (sealed), 02 weeks after synthesis): 95.5% | Purity (%) ([2]; 40° C. (sealed), 04 weeks after synthesis): 94.6% | Purity (%) ([2]; 40° C. (sealed), 08 weeks after synthesis): 93.6% | Purity (%) ([2]; 40° C. (sealed), 12 weeks after synthesis): 92.7% | Haemocompatibility (in words) (rabbit blood [4]; all haematological findings compared to control): haemocompatible | Coagulation (PTT in sec.) (rabbit blood [4]; [8]): 36 sec. (2×) and 38 sec. | Differential leucocyte count: Basophile % (rabbit blood [4]; [8]): 00% | Differential leucocyte count: Eosinophil % (rabbit blood [4]; [8]): 02% (2×) and 01% | Differential leucocyte count: Lymphocyte % (rabbit blood [4]; [8]): 44% and 50% and 49% | Differential leucocyte count: Monocyte % (rabbit blood [4]; [8]): 01% | Differential leucocyte count: Neutrophil % (rabbit blood [4]; [8]): 55% and 48% (2×) | Distribution of cells: Platelets (rabbit blood [4]; [8]): Normal | Distribution of cells: RBC (rabbit blood [4]; [8]): Normal | Distribution of cells: WBC (rabbit blood [4]; [8]): Normal | Platelet count (rabbit blood [4]; [8]): 4.9 lakhs/cmm and 4.5 lakhs/cmm (2×) | Thrombosis (rabbit blood [4]; [8]): Nil | Purity (%) ([7]; BHT 0.0% (w/w), 0 week): 97.3% | Purity (%) ([7]; BHT 0.0% (w/w), 2 weeks): 95.5% | Purity (%) ([7]; BHT 0.0% (w/w), 4 weeks): 94.6% | Purity (%) ([7]; BHT 0.0% (w/w), 8 weeks): 93.6% | Purity (%) ([7]; BHT 0.1% (w/w), 0 week): 97.7% | Purity (%) ([7]; BHT 0.1% (w/w), 2 weeks): 97.5% | Purity (%) ([7]; BHT 0.1% (w/w), 4 weeks): 97.5% | Purity (%) ([7]; BHT 0.1% (w/w), 8 weeks): 97.5% | Purity (%) ([7]; BHT 0.2% (w/w), 0 week): 97.6% | Purity (%) ([7]; BHT 0.2% (w/w), 2 weeks): 97.6% | Purity (%) ([7]; BHT 0.2% (w/w), 4 weeks): 97.5% | Purity (%) ([7]; BHT 0.2% (w/w), 8 weeks): 97.5% | Purity (%) ([7]; BHT 0.5% (w/w), 0 week): 97.6% | Purity (%) ([7]; BHT 0.5% (w/w), 2 weeks): 97.5% | Purity (%) ([7]; BHT 0.5% (w/w), 4 weeks): 97.4% | Purity (%) ([7]; BHT 0.5% (w/w), 8 weeks): 97.4% | Purity (%) ([7]; BHT 1.0% (w/w), 0 week): 97.6% | Purity (%) ([7]; BHT 1.0% (w/w), 2 weeks): 97.5% | Purity (%) ([7]; BHT 1.0% (w/w), 4 weeks): 97.4% | Purity (%) ([7]; BHT 1.0% (w/w), 8 weeks): 97.4% | Purity after eight-weeks of storage ([7]; with various concentrations of BHT (concentration not given)): 97.4%
Structure (SMILES): COC1CC(C[C@H](C)[C@@H]2CC(=O)[C@H](C)/C=C(\C)C(O)[C@@H](OC)C(=O)[C@H](C)C[C@H](C)/C=C/C=C/C=C(\C)[C@@H](OC)C[C@@H]3CC[C@@H](C)[C@@](O)(O3)C(=O)C(=O)N3CCCC[C@H]3C(=O)O2)CCC1OC1COC1 (some centres unmarked) [Merilimus-2, 42-O-(oxetan-3-yl) rapamycin]
Toxic effect on cells (in words) [1]: did not reveal any toxic effect on cells | Growth suppression of smooth muscle cells (in words) [3]: more effectively inhibited growth of smooth muscle cells than rapamycin | Leucocyte count (rabbit blood [4]; [8]): 7.5 Thousand/cmm (2×) and 6.5 Thousand/cmm | Haemolytic Index (rabbit blood [5]; individual test extracts 1-3, rabbit blood, incubated 4 hrs, = Haemoglobin released/Haemoglobin present × 100): 1.9 (2×) and 2.0 | Haemolytic Index, Mean ± S. D. (rabbit blood [5]): 1.9 ± 0.02 | Haemolytic Index, Mean ± S. D. (rabbit blood [5]; listed as 42-O-(oxetan-3-yl) rapamycin): 1.9 | Haemolytic nature (in words) (rabbit blood [5]; on the basis of haemolytic index): non-haemolytic | Growth suppression of smooth muscle cells (in words) [6]: more effectively inhibited growth of smooth muscle cells than rapamycin
